Entries after “also recorded” stand apart in the source; their conditions may differ.
Experiments:
MKN45 NLR target cells = experiment: Incucyte real time killing assay, PBMCs + MKN45 NLR target cells + CEA-TCB with escalating dasatinib; assay type: cell-based, human
Experimental: FIG. 1. Real time killing of red fluorescent A375 cells loaded with RMF peptides by 10 nM HLA-A2 WT-1-TCB (A) and of red fluorescent MKN45 cells by 1 nM CEA-TCB (B) in the presence of different dasatinib concentrations ranging from 100 nM to 0 nM. (A) A375 NucLight Red (NLR) target cells were pulsed with RMF peptides (2 hours before killing assay) and co-cultured with HLA-A2 WT1-TCB, dasatinib (dasa) and PBMCs, effector to target ratio (E:T)=10:1 (E:T=50 000 PBMCs:5000 target cells). Killing was followed by Incucyte® (1 scan every 3 hours, zoom 10×, phase and red 400 ms acquisition time). % Killing was measured by normalizing total red area with values at t=0 hour and target cells+PBMCs+dasatinib (without TCB) control wells for each time point. Means of technical replicates+/−SEM for 1 donor. (B) MKN45 NLR target cells were co-cultured with CEA TCB, dasatinib and PBMCs, E:T=10:1 (E:T=50 000 PBMCs:5000 target cells). Killing was followed by Incucyte (1 scan every 3 hours, zoom 10×, phase and red 400 ms acquisition time). % Killing was measured by normalizing total red area with values at t=0 hour and target cells+PBMCs+dasatinib control wells for each time point. Means of technical replicates+/−SEM for 1 donor.
To assess the inhibitory effect of dasatinib on TCB-mediated target-cell killing, we conducted killing assays using peripheral blood mononuclear cells (PBMCs), NucLight Red (NLR) target-cells and respective TCB in media supplemented with escalating concentrations of dasatinib. The Incucyte® system (Essen Bioscience) was used to capture the loss of red fluorescent protein signal over time as a readout of target-cell killing.

[1] = test system: IFN-γ, IL-2 and TNF-α release; experiment: Cytokine levels in supernatants of the reversibility assay (Luminex); assay type: cell-based, human
Experimental: FIG. 18. […] Cytokines ((A) IFN-γ, (B) IL-2, (C) TNF-α) were measured with a multiplex cytokine kit (Luminex technology). 1 donor.
FIG. 20. Cytokine levels in the supernatants of the assay after first stimulation in the absence of 25 nM dasatinib and after second stimulation in the presence of 25 nM dasatinib, in the assay of FIG. 16 (“ON/OFF”). Cytokines ((A) IFN-γ, (B) IL-2, (C) TNF-α) were measured with a multiplex cytokine kit (Luminex technology). 1 donor.
FIG. 22. Cytokine release. Supernatants were collected after first and second stimulation in the assay of FIG. 16 and cytokines ((A) TNF-α, (B) IFN-γ, (C) IL-2) measured using a multiplex cytokine kit (Luminex).
We then verified if dasatinib's effect is reversible upon its removal. Therefore we set-up a killing assay with two and three stimulations in the presence and absence of dasatinib and followed the killing kinetics using an Incucyte® system (FIG. 16). After each stimulation, effector cells were washed and re-stimulated on fresh MKN45 NLR target cells with 1 nM CEA TCB in the presence and absence of dasatinib allowing to mimic OFF/ON switch and ON/OFF/ON switch.
Lastly, we evaluated if the effect of dasatinib was reversible on activated T cells. Consequently, we supplemented the media with 25 nM dasatinib upon the second stimulation with 1 nM CEA-TCB to prevent killing from activated T cells and then removed the dasatinib upon third stimulation with 1 nM CEA-TCB to verify if killing would be restored.
We were curious to see if low doses of dasatinib could prevent cytokine release while minimally affecting TCB-efficacy upon first stimulation. In killing assays as described in FIG. 16, the cytokine levels upon first treatment with 1 nM CEA-TCB in the presence of 6.25 nM and 12.5 nM dasatinib and upon second treatment with 1 nM CEA-TCB in the absence of dasatinib were measured in the supernatants.

CD4+ and CD8+ T cells = experiment: CD19-TCB-induced T cell activation (CD69, CD25) in the SUDLH-8 assay; assay type: cell-based, human; conditions: 100 nM dasatinib, 24 hrs; monohydrate
Experimental: FIG. 28. […] The expression of CD69 (A) and CD25 (B) on CD4+ T cells was measured by flow cytometry at 24 hrs in the assay described in FIG. 26. Mean of n=3 donors+SD. One way ANOVA, Friedman test, p-value: 0.1234 (ns), 0.0332 (*), 0.0021 (**), 0.0001 (***), <0.0001 (****).
FIG. 29. […] The expression of CD69 (A) and CD25 (B) on CD8+ T cells was measured by flow cytometry at 24 hrs in the assay described in FIG. 26. Mean of n=3 donors+SD. One way ANOVA, Friedman test, p-value: 0.1234 (ns), 0.0332 (*), 0.0021 (**), 0.0001 (***), <0.0001 (****).
The killing of CTV labelled SUDLH-8 cells was measured by flow cytometry using a Live/Dead Near Infra Red (NIR) dye. […] The expression of CD69 and CD25 were measured on CD4+ (FIG. 28) and CD8+(FIG. 29) T cells by flow cytometry as a readout for T cell activation. […] Lastly, the cytokine levels were analyzed in the supernatants of the assay by Luminex to evaluate the effect of dasatinib on CD19-TCB-induced cytokine release (FIGS. 30 and 31).

[2] = test system: IL-2, TNF-α, IFN-γ and IL-6; experiment: CD19-TCB induced serum cytokine release in humanized NSG mice (Luminex); assay type: in vivo; conditions: 1.5 and 6 hrs post treatment, 50 mg/kg dasatinib p.o., monohydrate
Experimental: Humanized NSG mice were co-treated with 0.5 mg/kg CD19-TCB (i.v.) and 50 mg/kg dasatinib (p.o.) twice per day. Blood was collected by tail vein bleeding at 1.5 hrs, 6 hrs and 48 hrs after treatment with CD19-TCB. At 72 hrs, blood was collected retro-orbitally, before the termination of the experiment. N=4 mice per group.
Serum was collected from blood samples collected 1.5 hrs post treatment with CD19-TCB in the experiment described in FIG. 32. The levels of IL-2 (A), TNF-α (B), IFN-γ (C) and IL-6 (D) are measured by Luminex. Mean of n=4 mice+/−SEM. One way ANOVA, Kruskal Wallis test, p-value: 0.1234 (ns), 0.0332 (*), 0.0021 (**), 0.0001 (***), <0.0001 (****).
Serum is collected from blood samples collected 6 hrs post treatment with CD19-TCB in the experiment described in FIG. 32. The levels of IL-2 (A), TNF-α (B), IFN-γ (C) and IL-6 (D) are measured by Luminex. Mean of n=4 mice+/−SEM. One way ANOVA, Kruskal Wallis test, p-value: 0.1234 (ns), 0.0332 (*), 0.0021 (**), 0.0001 (***), <0.0001 (****).
To best mimick the pharmacodynamic profile of dasatinib in the clinic and to verify whether the resulting exposure would be sufficient to prevent CD19-TCB-induced T cell cytotoxicity and cytokine release, dasatinib was given per os twice per day.
Lastly, mice were bled 1.5 and 6 hrs post treatment with CD19-TCB and dasatinib to collect serum for cytokine measurements by Luminex (FIGS. 35 and 36).

[3] = 146 patients, 100 mg dasatinib QD; cited from earlier work

Cc1nc(Nc2ncc(C(=O)Nc3c(C)cccc3Cl)s2)cc(N2CCN(CCO)CC2)n1 [dasatinib, N-(2-chloro-6-methylphenyl)-2-[[6-[4-(2-hydroxyethyl)-1-piperazinyl]-2-methyl-4-pyrimidinyl]amino]-5-thiazole carboxamide monohydrate]
inhibition at 0.0125 µM (MKN45 NLR target cells; Homo sapiens, MKN-45, 12.5 nM dasatinib, 1 nM CEA-TCB, read-out: inhibition of target-cell killing): 69% | inhibition at 0.05 µM (MKN45 NLR target cells; Homo sapiens, MKN-45, 50 nM (24.4 ng/mL) dasatinib, 1 nM CEA-TCB, read-out: inhibition of target-cell killing): 88.2% | inhibition at 0.1 µM (MKN45 NLR target cells; Homo sapiens, MKN-45, 100 nM (48.8 ng/mL) dasatinib, 1 nM CEA-TCB, read-out: inhibition of target-cell killing): 90.4% | threshold in vitro concentration for preventing T cell mediated target-cell lysis (MKN45 NLR target cells; PBMCs stimulated with both TCB (CEA-TCB, HLA-A2 WT-1-TCB)): 12.5 nM | inhibition of killing (MKN45 NLR target cells; dasatinib concentrations below 12.5 nM, 1 nM CEA-TCB): only partially inhibited killing | release of IFN-γ, IL-2 and TNF-α during first stimulation ([1]; 6.25 nM and 12.5 nM dasatinib, 1 nM CEA-TCB): lowered the release | release of IFN-γ, IL-2 and TNF-α (ON/OFF) ([1]; 25 nM dasatinib upon second stimulation, 1 nM CEA-TCB): prevented the release | T-cell derived cytokine release (IFN-γ, IL-2, TNF-α) after first stimulation ([1]; 25 nM dasatinib, 1 nM CEA-TCB): full inhibition | levels of TNF-α, IL-2 and IFN-γ during second stimulation ([1]; dasatinib (6.25 nM, 12.5 nM) removed): remained low | release of IFN-γ, IL-2 and TNF-α after removal of dasatinib and restimulation ([1]; removal of 25 nM dasatinib, restimulation with 1 nM CEA-TCB): T cell functionality was restored upon dasatinib removal | CD19-TCB-induced CD4+ and CD8+ T cell activation (CD69, CD25) (CD4+ and CD8+ T cells): prevents CD19-TCB-induced CD4+ T cell activation; also recorded: prevents CD19-TCB-induced CD8+ T cell activation; also recorded: prevented CD4+ and CD8+ T cell activation | CD19-TCB-induced serum IL-2, TNF-α, IFN-γ and IL-6 ([2]; listed as Dasatinib): prevents CD19-TCB induced cytokine release in vivo | CD19-TCB-induced serum IL-2, TNF-α, IFN-γ and IL-6 [2]: inhibited | Cmax [3]: 54.6 ng/mL | Cmin [3]: 2.61 ng/mL

Source: US20220088195A1, “Prevention or mitigation of T-cell bispecific antibody-related adverse effects” (Hoffmann-La Roche Inc., priority 2020, published 2022)
